Data published in patent US20260158017A1, “KIF18A INHIBITOR” (WIGEN BIOMEDICINE TECHNOLOGY (SHANGHAI) CO., LTD., priority 2021, published 2026).

tested on: HCT116 cells; test: In vitro anti-proliferative activity against HCT116 cells (intracellular ATP content, 72 h); assay type: cell-based; settings: Homo sapiens, HCT-116, 72 h after dosing
Experimental: Biological Example 3. In Vitro Anti-Proliferative Activity of the Compounds of the Present Invention Against HCT116 Cells
HCT116 cells were seeded on a 384-well plate at 3000 cells/well. After overnight adherence culture, DMSO or the compounds serially 1:5-diluted from 5 μM were added. The viability of the cells was assessed 72 h after dosing by measuring the intracellular ATP content. The inhibition percentages of viable cells by the compounds were calculated by comparing with the DMSO group, and the IC 50 values were also calculated.

SMILES	IC50 [nM]
CNc1ccc(NC(=O)c2ccc(NS(=O)(=O)CCO)cc2N2CCC3(CC2)CC3)nc1N1CCC(F)(F)CC1 [Compound 643]	> 10000
CN(C)c1ccc(NC(=O)c2ccc(NS(=O)(=O)CCO)cc2N2CCC3(CC2)CC3)nc1N1CCC(F)(F)CC1 [Compound 647]	> 10000
O=C(Nc1ccc(OC(F)(F)F)c(N2CCC(F)(F)CC2)c1)c1ccc(NS(=O)(=O)CCO)cc1N1CCC2(CC1)CC2 [Compound 655]	> 10000
Nc1ccc(NC(=O)c2ccc(NS(=O)(=O)CCO)cc2N2CCC3(CC2)CC3)cc1N1CCC(F)(F)CC1 [Compound 701]	> 10000
CCOc1ccc(NC(=O)c2ccc(NS(=O)(=O)CCO)cc2N2CCC3(CC2)CC3)nc1N1CCC(F)(F)CC1 [Compound 702]	> 10000
CN(C)c1ccc(C(=O)Nc2ccc(NS(=O)(=O)CCO)cc2N2CCC3(CC2)CC3)cc1N1CCC(F)(F)CC1 [Compound 703]	> 10000
CNc1ccc(C(=O)Nc2ccc(NS(=O)(=O)CCO)cc2N2CCC3(CC2)CC3)cc1N1CCC(F)(F)CC1 [Compound 704]	> 10000
CN(C)c1ccc(C(=O)Nc2ccc(NS(=O)(=O)CCO)cc2N2CCC3(CC2)CC3)nc1N1CCC(F)(F)CC1 [Compound 705]	> 10000

target: T1, Recombinant human KIF18A (1-467His-tagged) protein (Homo sapiens, UniProt Q8NI77); test: KIF18A enzyme assay (microtubule-stimulated ATPase activity, ADP-Glo); assay type: biochemical; settings: 30 nM KIF18A, 75 μM ATP, 30 μg/mL pig microtubules; read-out: Inhibitory activity against KIF18A IC50
T1 construct: Recombinant human KIF18A (1-467His-tagged) protein; His; made in house
In short: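 Buffer 15 mM Tris pH 7.5, 10 mM MgCl2, 0.01% Pluronic F-68, 1 μM paclitaxel, 30 μg/mL pig microtubules; reactions at room temperature. IC50 from inhibition relative to DMSO.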

T1 sequence (Q8NI77 1-467): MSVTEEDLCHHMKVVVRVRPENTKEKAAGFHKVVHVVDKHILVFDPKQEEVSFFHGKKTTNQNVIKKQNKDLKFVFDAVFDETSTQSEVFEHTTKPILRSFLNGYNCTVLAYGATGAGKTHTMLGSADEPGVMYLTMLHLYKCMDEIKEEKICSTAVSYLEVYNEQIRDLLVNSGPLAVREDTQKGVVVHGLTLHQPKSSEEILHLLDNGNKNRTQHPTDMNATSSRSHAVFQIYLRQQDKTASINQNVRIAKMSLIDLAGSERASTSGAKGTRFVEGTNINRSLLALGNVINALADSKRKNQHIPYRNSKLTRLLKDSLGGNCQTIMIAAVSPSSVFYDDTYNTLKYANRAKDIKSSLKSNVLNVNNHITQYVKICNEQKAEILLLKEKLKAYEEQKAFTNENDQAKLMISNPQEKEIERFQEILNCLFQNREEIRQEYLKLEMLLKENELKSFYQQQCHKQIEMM
T1 sequence (P02550 whole entry partner): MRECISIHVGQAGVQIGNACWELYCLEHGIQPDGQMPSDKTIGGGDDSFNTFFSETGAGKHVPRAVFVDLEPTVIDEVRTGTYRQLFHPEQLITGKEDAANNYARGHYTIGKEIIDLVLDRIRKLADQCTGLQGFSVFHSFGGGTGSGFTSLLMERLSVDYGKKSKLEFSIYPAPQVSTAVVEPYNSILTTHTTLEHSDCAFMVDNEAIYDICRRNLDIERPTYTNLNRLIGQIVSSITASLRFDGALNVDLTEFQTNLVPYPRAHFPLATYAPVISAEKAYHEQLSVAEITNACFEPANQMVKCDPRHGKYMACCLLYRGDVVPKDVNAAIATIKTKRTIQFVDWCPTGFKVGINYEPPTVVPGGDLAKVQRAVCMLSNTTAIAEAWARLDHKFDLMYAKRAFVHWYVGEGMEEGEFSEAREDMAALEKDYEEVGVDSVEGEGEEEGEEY
T1 sequence (P02554 whole entry partner): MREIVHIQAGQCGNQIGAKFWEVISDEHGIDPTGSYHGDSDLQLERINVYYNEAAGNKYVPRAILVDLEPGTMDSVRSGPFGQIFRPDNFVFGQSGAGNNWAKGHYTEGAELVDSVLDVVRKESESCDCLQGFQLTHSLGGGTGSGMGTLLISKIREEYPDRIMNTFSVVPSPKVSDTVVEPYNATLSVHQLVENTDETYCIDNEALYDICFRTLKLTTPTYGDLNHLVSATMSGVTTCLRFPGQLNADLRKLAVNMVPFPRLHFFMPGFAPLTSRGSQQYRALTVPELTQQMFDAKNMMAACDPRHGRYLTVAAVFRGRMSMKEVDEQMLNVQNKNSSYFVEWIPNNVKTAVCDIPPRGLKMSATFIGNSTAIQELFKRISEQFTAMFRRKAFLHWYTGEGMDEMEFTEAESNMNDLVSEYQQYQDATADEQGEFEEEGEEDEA

SMILES	IC50 [nM]
CSc1ccc(NC(=O)c2ccc(NS(=O)(=O)CCO)cc2N2CCC3(CC2)CC3)nc1N1CC(F)(F)C1 [Compound 596]	≤ 100
CSc1ccc(NC(=O)c2ccc(NS(=O)(=O)CCO)cc2N2CCC3(CC2)CC3)nc1OCCC(F)(F)F [Compound 597]	≤ 100
CSc1ccc(NC(=O)c2ccc(NS(=O)(=O)CCO)cc2N2CCC3(CC2)CC3)nc1N1CCC2(CC2)C1 [Compound 598]	≤ 100
CSc1ccc(NC(=O)c2ccc(NS(=O)(=O)CCO)cc2N2CCC3(CC2)CC3)nc1OC1CCC1 [Compound 599]	≤ 100
CSc1ccc(NC(=O)c2ccc(NS(=O)(=O)CCO)cc2N2CCC3(CC2)CC3)nc1N1CCC(C)(F)C1 (stereo not shown) [Compound 600]	≤ 100
CSc1ccc(NC(=O)c2ccc(NS(=O)(=O)CCO)cc2N2CCC3(CC2)CC3)nc1N1CCC(F)CC1 [Compound 601]	≤ 100
CSc1ccc(NC(=O)c2ccc(NS(=O)(=O)CCO)cc2N2CCC3(CC2)CC3)nc1N1CC2CC2C1 (stereo not shown) [Compound 602]	≤ 100
CSc1ccc(NC(=O)c2ccc(NS(=O)(=O)CCO)cc2N2CCC3(CC2)CC3)nc1NC(C)(C)CO [Compound 603]	≤ 100
CSc1ccc(NC(=O)c2ccc(NS(=O)(=O)CCO)cc2N2CCC3(CC2)CC3)nc1N1CCOCC1 [Compound 604]	≤ 100
CSc1ccc(NC(=O)c2ccc(NS(=O)(=O)[C@@H](C)CO)cc2N2CCC3(CC2)CC3)nc1N1CCC(F)(F)CC1 [Compound 605]	≤ 100
CSc1ccc(NC(=O)c2ccc(NS(=O)(=O)[C@H](C)CO)cc2N2CCC3(CC2)CC3)nc1N1CCC(F)(F)CC1 [Compound 606]	≤ 100
CSc1ccc(NC(=O)c2ccc(NS(=O)(=O)[C@@H](C)CO)cc2N2CCC3(CC2)CC3)nc1N1CCO[C@H](C)C1 [Compound 607]	≤ 100
CSc1ccc(NC(=O)c2ccc(NS(=O)(=O)[C@H](C)CO)cc2N2CCC3(CC2)CC3)nc1N1CCO[C@H](C)C1 [Compound 608]	≤ 100
CSc1ccc(NC(=O)c2cnc(NS(=O)(=O)CCO)cc2N2CCC3(CC2)CC3)cc1N1CCC(F)(F)CC1 [Compound 609]	≤ 100
CSc1ccc(NC(=O)c2cnc(NS(=O)(=O)CCO)cc2N2CCC3(CC2)CC3)cc1N1CCO[C@H](C)C1 [Compound 610]	≤ 100
CSc1ccc(NC(=O)c2cnc(NS(=O)(=O)CCO)cc2N2CCC3(CC2)CC3)cc1N1CCO[C@@H](C)C1 [Compound 611]	≤ 100
CSc1ccc(NC(=O)c2cnc(NS(=O)(=O)CCO)cc2N2CCC3(CC2)CC3)cc1N1CC(F)(F)C1 [Compound 612]	≤ 100
CSc1ccc(NC(=O)c2cnc(NS(=O)(=O)CCO)cc2N2CCC3(CC2)CC3)cc1OCCC(F)(F)F [Compound 613]	≤ 100
CSc1ccc(NC(=O)c2cnc(NS(=O)(=O)CCO)cc2N2CCC3(CC2)CC3)cc1N1CCC2(CC2)C1 [Compound 614]	≤ 100
CSc1ccc(NC(=O)c2cnc(NS(=O)(=O)CCO)cc2N2CCC3(CC2)CC3)cc1OC1CCC1 [Compound 615]	≤ 100
CSc1ccc(NC(=O)c2cnc(NS(=O)(=O)CCO)cc2N2CCC3(CC2)CC3)cc1N1CCC(C)(F)C1 (stereo not shown) [Compound 616]	≤ 100
CSc1ccc(NC(=O)c2cnc(NS(=O)(=O)CCO)cc2N2CCC3(CC2)CC3)cc1N1CCC(F)CC1 [Compound 617]	≤ 100
CSc1ccc(NC(=O)c2cnc(NS(=O)(=O)CCO)cc2N2CCC3(CC2)CC3)cc1N1CC2CC2C1 (stereo not shown) [Compound 618]	≤ 100

SMILES	IC50 [nM]
CSc1ccc(NC(=O)c2cnc(NS(=O)(=O)CCO)cc2N2CCC3(CC2)CC3)cc1NC(C)(C)CO [Compound 619]	≤ 100
CSc1ccc(NC(=O)c2cnc(NS(=O)(=O)CCO)cc2N2CCC3(CC2)CC3)cc1N1CCOCC1 [Compound 620]	≤ 100
CSc1ccc(NC(=O)c2cnc(NS(=O)(=O)[C@@H](C)CO)cc2N2CCC3(CC2)CC3)cc1N1CCC(F)(F)CC1 [Compound 621]	≤ 100
CSc1ccc(NC(=O)c2cnc(NS(=O)(=O)[C@H](C)CO)cc2N2CCC3(CC2)CC3)cc1N1CCC(F)(F)CC1 [Compound 622]	≤ 100
CSc1ccc(NC(=O)c2cnc(NS(=O)(=O)[C@@H](C)CO)cc2N2CCC3(CC2)CC3)cc1N1CCO[C@H](C)C1 [Compound 623]	≤ 100
CSc1ccc(NC(=O)c2cnc(NS(=O)(=O)[C@H](C)CO)cc2N2CCC3(CC2)CC3)cc1N1CCO[C@H](C)C1 [Compound 624]	≤ 100
CSc1ccc(NC(=O)c2cnc(NS(=O)(=O)CCO)cc2N2CCC3(CC2)CC3)nc1N1CCC(F)(F)CC1 [Compound 625]	≤ 100
CSc1ccc(NC(=O)c2cnc(NS(=O)(=O)CCO)cc2N2CCC3(CC2)CC3)nc1N1CCO[C@H](C)C1 [Compound 626]	≤ 100
CSc1ccc(NC(=O)c2cnc(NS(=O)(=O)CCO)cc2N2CCC3(CC2)CC3)nc1N1CCO[C@@H](C)C1 [Compound 627]	≤ 100
CSc1ccc(NC(=O)c2cnc(NS(=O)(=O)CCO)cc2N2CCC3(CC2)CC3)nc1N1CC(F)(F)C1 [Compound 628]	≤ 100
CSc1ccc(NC(=O)c2cnc(NS(=O)(=O)CCO)cc2N2CCC3(CC2)CC3)nc1OCCC(F)(F)F [Compound 629]	≤ 100
CSc1ccc(NC(=O)c2cnc(NS(=O)(=O)CCO)cc2N2CCC3(CC2)CC3)nc1N1CCC2(CC2)C1 [Compound 630]	≤ 100
CSc1ccc(NC(=O)c2cnc(NS(=O)(=O)CCO)cc2N2CCC3(CC2)CC3)nc1OC1CCC1 [Compound 631]	≤ 100
CSc1ccc(NC(=O)c2cnc(NS(=O)(=O)CCO)cc2N2CCC3(CC2)CC3)nc1N1CCC(C)(F)C1 (stereo not shown) [Compound 632]	≤ 100
CSc1ccc(NC(=O)c2cnc(NS(=O)(=O)CCO)cc2N2CCC3(CC2)CC3)nc1N1CCC(F)CC1 [Compound 633]	≤ 100
CSc1ccc(NC(=O)c2cnc(NS(=O)(=O)CCO)cc2N2CCC3(CC2)CC3)nc1N1CC2CC2C1 (stereo not shown) [Compound 634]	≤ 100
CSc1ccc(NC(=O)c2cnc(NS(=O)(=O)CCO)cc2N2CCC3(CC2)CC3)nc1NC(C)(C)CO [Compound 635]	≤ 100
CSc1ccc(NC(=O)c2cnc(NS(=O)(=O)CCO)cc2N2CCC3(CC2)CC3)nc1N1CCOCC1 [Compound 636]	≤ 100
CSc1ccc(NC(=O)c2cnc(NS(=O)(=O)[C@@H](C)CO)cc2N2CCC3(CC2)CC3)nc1N1CCC(F)(F)CC1 [Compound 637]	≤ 100
CSc1ccc(NC(=O)c2cnc(NS(=O)(=O)[C@H](C)CO)cc2N2CCC3(CC2)CC3)nc1N1CCC(F)(F)CC1 [Compound 638]	≤ 100
CSc1ccc(NC(=O)c2cnc(NS(=O)(=O)[C@@H](C)CO)cc2N2CCC3(CC2)CC3)nc1N1CCO[C@H](C)C1 [Compound 639]	≤ 100
CSc1ccc(NC(=O)c2cnc(NS(=O)(=O)[C@H](C)CO)cc2N2CCC3(CC2)CC3)nc1N1CCO[C@H](C)C1 [Compound 640]	≤ 100

tested on: HT-29 cells; test: In vitro anti-proliferative activity against HT-29 cells (intracellular ATP content, 72 h); assay type: cell-based; settings: Homo sapiens, 72 h after dosing
Experimental: Biological Example 2. In Vitro Anti-Proliferative Activity of the Compounds of the Present Invention Against HT-29 Cells
HT-29 cells were seeded on a 384-well plate at 3000 cells/well. After overnight adherence culture, DMSO or the compounds serially 1:5-diluted from 5 μM were added. The viability of the cells was assessed 72 h after dosing by measuring the intracellular ATP content. The inhibition percentages of viable cells by the compounds were calculated by comparing with the DMSO group, and the IC50 values were also calculated.

SMILES	IC50 [nM]
CNc1ccc(NC(=O)c2ccc(NS(=O)(=O)CCO)cc2N2CCC3(CC2)CC3)nc1N1CCC(F)(F)CC1 [Compound 643]	34.2
CN(C)c1ccc(NC(=O)c2ccc(NS(=O)(=O)CCO)cc2N2CCC3(CC2)CC3)nc1N1CCC(F)(F)CC1 [Compound 647]	334
O=C(Nc1ccc(OC(F)(F)F)c(N2CCC(F)(F)CC2)c1)c1ccc(NS(=O)(=O)CCO)cc1N1CCC2(CC1)CC2 [Compound 655]	1170
Nc1ccc(NC(=O)c2ccc(NS(=O)(=O)CCO)cc2N2CCC3(CC2)CC3)cc1N1CCC(F)(F)CC1 [Compound 701]	76.7
CCOc1ccc(NC(=O)c2ccc(NS(=O)(=O)CCO)cc2N2CCC3(CC2)CC3)nc1N1CCC(F)(F)CC1 [Compound 702]	71.2
CN(C)c1ccc(C(=O)Nc2ccc(NS(=O)(=O)CCO)cc2N2CCC3(CC2)CC3)cc1N1CCC(F)(F)CC1 [Compound 703]	184
CNc1ccc(C(=O)Nc2ccc(NS(=O)(=O)CCO)cc2N2CCC3(CC2)CC3)cc1N1CCC(F)(F)CC1 [Compound 704]	64.2
CN(C)c1ccc(C(=O)Nc2ccc(NS(=O)(=O)CCO)cc2N2CCC3(CC2)CC3)nc1N1CCC(F)(F)CC1 [Compound 705]	146
